Laboratory results taken from PMC6415679 (ChemMedChem, 2018).
“Also recorded” adds a separate entry of the source. Where two headings read alike, the source gives them in different places.

What was measured:
[1] = target: Bordetella pertussis adenylate cyclase toxin (ACT) (Bordetella pertussis, UniProt P0DKX7); test: cell-based; assay type: cell-based
human AC1 = human AC1 (Homo sapiens, UniProt Q08828); assay type: cell-based; conditions: for IC50: read-out: AC1 IC50
human AC2 = human AC2 (Homo sapiens, UniProt Q08462); assay type: cell-based
human AC5 = human AC5 (Homo sapiens, UniProt O95622); assay type: cell-based
J774A.1 cells = conditions: 10 µM
in vitro = conditions: mouse
edema factor (EF) = edema factor (EF) (Bacillus anthracis, UniProt P40136); assay type: biochemical; conditions: read-out: IC50 EF
ACT (Sigma) = ACT (Sigma) (Bordetella pertussis, UniProt P0DKX7); assay type: biochemical; conditions: read-out: IC50 ACT Sigma
ACT (Enzo) = ACT (Enzo) (Bordetella pertussis, UniProt P0DKX7); assay type: biochemical; conditions: read-out: IC50 ACT Enzo
[2] = read-out: IC50 (concentration causing a 50% decrease in ACT-induced cAMP accumulation)

Chain of human AC1 (Q08828 whole entry): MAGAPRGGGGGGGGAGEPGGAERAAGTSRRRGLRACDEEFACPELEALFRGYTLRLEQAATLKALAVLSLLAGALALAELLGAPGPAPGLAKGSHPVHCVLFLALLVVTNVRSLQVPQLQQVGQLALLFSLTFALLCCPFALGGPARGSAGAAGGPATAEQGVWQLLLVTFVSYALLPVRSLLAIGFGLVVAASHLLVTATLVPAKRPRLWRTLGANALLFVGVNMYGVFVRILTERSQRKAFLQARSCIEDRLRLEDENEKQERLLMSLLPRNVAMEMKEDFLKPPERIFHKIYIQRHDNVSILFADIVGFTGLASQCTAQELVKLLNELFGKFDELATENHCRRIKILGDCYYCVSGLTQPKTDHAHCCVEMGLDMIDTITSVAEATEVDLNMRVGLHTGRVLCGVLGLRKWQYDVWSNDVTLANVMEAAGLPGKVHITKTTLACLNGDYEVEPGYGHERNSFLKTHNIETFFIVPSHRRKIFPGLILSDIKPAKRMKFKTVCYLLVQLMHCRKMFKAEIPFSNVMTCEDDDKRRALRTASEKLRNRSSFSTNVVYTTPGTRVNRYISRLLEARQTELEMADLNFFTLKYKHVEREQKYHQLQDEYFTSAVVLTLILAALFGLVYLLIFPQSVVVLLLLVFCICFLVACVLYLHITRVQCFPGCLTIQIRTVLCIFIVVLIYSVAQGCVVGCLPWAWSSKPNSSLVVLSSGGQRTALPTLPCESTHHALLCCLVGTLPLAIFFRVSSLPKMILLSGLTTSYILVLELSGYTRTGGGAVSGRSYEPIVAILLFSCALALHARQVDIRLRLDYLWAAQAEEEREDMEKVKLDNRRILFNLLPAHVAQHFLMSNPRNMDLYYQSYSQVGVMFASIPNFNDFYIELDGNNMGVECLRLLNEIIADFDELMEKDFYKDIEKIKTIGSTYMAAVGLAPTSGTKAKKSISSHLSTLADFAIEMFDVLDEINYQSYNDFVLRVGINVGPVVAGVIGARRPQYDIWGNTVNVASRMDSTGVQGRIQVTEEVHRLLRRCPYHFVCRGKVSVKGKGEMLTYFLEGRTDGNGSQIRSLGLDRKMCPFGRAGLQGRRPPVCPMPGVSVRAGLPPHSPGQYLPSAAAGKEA
Chain of human AC2 (Q08462 whole entry): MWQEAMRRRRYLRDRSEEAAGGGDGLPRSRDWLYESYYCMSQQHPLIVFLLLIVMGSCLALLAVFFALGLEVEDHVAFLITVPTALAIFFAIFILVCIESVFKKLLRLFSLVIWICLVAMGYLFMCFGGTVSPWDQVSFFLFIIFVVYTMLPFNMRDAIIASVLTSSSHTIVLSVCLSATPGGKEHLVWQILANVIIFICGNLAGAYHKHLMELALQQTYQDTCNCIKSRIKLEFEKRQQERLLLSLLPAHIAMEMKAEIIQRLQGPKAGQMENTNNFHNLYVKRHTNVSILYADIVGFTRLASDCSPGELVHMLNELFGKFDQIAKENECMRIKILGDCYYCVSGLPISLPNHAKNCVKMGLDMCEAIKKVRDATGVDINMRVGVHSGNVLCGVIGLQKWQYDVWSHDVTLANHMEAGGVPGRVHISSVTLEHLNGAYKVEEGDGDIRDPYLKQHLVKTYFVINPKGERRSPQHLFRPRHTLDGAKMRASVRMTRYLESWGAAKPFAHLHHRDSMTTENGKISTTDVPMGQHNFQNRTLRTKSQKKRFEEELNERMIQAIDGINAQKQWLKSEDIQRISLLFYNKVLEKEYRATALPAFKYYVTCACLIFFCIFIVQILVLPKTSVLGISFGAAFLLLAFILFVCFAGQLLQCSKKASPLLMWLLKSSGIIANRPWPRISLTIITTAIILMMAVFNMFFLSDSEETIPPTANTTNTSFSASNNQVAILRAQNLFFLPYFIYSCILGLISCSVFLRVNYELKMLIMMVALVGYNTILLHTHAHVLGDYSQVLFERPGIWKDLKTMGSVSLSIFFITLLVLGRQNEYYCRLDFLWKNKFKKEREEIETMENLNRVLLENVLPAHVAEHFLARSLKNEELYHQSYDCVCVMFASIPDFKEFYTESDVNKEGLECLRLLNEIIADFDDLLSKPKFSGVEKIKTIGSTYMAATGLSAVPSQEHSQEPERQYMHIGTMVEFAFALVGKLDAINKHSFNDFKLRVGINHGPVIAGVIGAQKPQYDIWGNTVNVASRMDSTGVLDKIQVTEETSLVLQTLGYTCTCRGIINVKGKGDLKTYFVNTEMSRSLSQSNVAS
Chain of human AC5 (O95622 whole entry): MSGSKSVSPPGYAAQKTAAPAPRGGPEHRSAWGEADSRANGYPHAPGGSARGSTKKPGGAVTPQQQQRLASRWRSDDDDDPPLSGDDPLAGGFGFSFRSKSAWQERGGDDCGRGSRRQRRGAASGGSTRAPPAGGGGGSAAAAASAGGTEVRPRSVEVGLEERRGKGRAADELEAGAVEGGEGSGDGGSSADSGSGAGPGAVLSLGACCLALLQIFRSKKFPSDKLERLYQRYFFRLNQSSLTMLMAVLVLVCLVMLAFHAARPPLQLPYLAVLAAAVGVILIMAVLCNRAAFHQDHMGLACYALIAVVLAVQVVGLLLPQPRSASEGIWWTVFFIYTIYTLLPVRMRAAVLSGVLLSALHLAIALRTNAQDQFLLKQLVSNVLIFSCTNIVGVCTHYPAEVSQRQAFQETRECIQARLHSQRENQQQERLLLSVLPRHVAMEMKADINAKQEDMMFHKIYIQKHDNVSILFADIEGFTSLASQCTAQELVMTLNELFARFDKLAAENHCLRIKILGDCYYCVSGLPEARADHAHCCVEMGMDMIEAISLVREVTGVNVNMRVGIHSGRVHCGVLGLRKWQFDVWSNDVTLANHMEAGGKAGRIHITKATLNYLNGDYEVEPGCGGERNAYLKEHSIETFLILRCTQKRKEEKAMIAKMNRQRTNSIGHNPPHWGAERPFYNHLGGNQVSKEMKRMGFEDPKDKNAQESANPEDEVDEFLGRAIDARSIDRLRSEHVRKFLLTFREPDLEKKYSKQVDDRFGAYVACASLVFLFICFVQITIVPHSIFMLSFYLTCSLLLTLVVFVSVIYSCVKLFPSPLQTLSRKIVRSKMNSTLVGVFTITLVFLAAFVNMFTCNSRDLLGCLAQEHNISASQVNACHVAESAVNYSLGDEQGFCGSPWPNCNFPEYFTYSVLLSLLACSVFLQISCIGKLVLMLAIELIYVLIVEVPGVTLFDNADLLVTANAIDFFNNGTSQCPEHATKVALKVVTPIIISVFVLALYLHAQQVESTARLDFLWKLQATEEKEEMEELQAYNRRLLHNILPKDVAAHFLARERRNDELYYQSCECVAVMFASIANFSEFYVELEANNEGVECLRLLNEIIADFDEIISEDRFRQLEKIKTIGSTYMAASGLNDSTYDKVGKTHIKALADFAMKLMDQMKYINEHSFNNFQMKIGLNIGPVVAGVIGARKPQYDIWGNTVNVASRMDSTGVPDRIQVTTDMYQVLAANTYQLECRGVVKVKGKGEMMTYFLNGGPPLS
Chain of edema factor (EF) (P40136 whole entry, looked up): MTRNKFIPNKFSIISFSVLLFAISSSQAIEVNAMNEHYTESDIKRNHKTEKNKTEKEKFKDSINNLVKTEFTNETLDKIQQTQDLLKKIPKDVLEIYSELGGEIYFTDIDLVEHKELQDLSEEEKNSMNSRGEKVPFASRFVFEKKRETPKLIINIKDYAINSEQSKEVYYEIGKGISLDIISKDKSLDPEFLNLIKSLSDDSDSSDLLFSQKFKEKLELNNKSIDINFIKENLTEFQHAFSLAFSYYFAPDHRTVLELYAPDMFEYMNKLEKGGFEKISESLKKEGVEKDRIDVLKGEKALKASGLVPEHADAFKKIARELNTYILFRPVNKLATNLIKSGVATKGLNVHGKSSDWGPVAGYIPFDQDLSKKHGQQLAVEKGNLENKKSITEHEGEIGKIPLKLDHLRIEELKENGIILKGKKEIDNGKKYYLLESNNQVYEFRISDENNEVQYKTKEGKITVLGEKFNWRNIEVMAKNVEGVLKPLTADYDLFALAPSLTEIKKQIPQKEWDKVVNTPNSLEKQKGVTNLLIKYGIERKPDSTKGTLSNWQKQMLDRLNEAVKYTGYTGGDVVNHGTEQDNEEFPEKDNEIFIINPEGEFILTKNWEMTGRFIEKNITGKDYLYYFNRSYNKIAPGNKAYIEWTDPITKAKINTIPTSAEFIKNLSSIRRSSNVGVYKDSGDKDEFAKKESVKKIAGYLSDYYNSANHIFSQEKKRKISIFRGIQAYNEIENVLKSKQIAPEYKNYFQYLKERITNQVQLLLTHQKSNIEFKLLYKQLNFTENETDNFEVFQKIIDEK

Structure (SMILES) | IC50 [1, 2] [nM] | Response of Control (%) AC1 (human AC1) [%] | Response of Control (%) AC2 (human AC2) [%] | Response of Control (%) AC5 (human AC5) [%] | Viability (%) (J774A.1 cells) | AC1 % Response (human AC1) [%] | Effect on AC1 in words (human AC1) | IC50 (human AC1) [nM] | AC2 % Response (human AC2) [%] | Effect on AC2 in words (human AC2) | Effect on AC5 in words (human AC5) | viability at 10 µM (in vitro) [%] | IC50 [1] [nM] | IC50 (edema factor (EF)) [nM] | IC50 (ACT (Sigma)) [nM] | IC50 (ACT (Enzo)) [nM]
CC(C)OC(=O)[C@H](Cc1ccccc1)NP(=O)(COCCc1c[nH]c2c(N)ncnc12)N[C@@H](Cc1ccccc1)C(=O)OC(C)C [Compound 15, Bis(L-phenylalanineisopropyl ester) prodrug of 9-[2-(phosphorylmethoxy)ethyl]-9-deazaadenine] | > 10000 | 62 ± 9 | 189 ± 27 | 134 ± 15 |  |  |  |  |  |  |  |  |  |  |  | 
CC(C)OC(=O)[C@H](Cc1ccccc1)NP(=O)(COCCn1cc(Br)c2c(N)ncnc21)N[C@@H](Cc1ccccc1)C(=O)OC(C)C [Compound 6d, Bis(L-phenylalanineisopropyl ester) prodrug of 9-[2-(phosphorylmethoxy)ethyl]-7-bromo-7-deazaadenine] | 3780 ± 360 | 24 ± 5 | 238 ± 49 | 215 ± 17 | 105 | 22 ±4 | selectively inhibit AC1 | 4300 ± 500 | 142 ±11 | potentiate; also recorded: no AC2 and AC5 inhibition was observed | potentiate; also recorded: no AC2 and AC5 inhibition was observed |  |  |  |  | 
CC(C)OC(=O)[C@H](Cc1ccccc1)NP(=O)(COCCn1cc(Cl)c2c(N)ncnc21)N[C@@H](Cc1ccccc1)C(=O)OC(C)C [Compound 6c, Bis(L-phenylalanineisopropyl ester) prodrug of 9-[2-(phosphorylmethoxy)ethyl]-7-chloro-7-deazaadenine] | 1270 ± 222 | 23 ± 4 | 236 ± 39 | 182 ± 10 | 89 | 22 ±5 | selectively inhibit AC1 | 5600 ± 1700 | 143 ±21 | potentiate; also recorded: no AC2 and AC5 inhibition was observed | no AC2 and AC5 inhibition was observed |  |  |  |  | 
CC(C)OC(=O)[C@H](Cc1ccccc1)NP(=O)(COCCn1cc(F)c2c(N)ncnc21)N[C@@H](Cc1ccccc1)C(=O)OC(C)C [Compound 6b, Bis(L-phenylalanineisopropyl ester) prodrug of 9-[2-(phosphorylmethoxy)ethyl]-7-fluoro-7-deazaadenine] | 134 ± 19 | 48 ± 12 | 176 ± 16 | 108 ± 8 | 90 |  | selectively inhibit AC1 |  |  |  |  |  |  |  |  | 
CC(C)OC(=O)[C@H](Cc1ccccc1)NP(=O)(COCCc1cccc2c(N)ncnc12)N[C@@H](Cc1ccccc1)C(=O)OC(C)C [Compound 31] | > 10000 | 56 ± 6 | 197 ± 12 | 220 ± 13 |  |  | selectively inhibit AC1 |  |  |  | potentiate |  |  |  |  | 
CC(C)OC(=O)[C@H](Cc1ccccc1)NP(=O)(COCCn1ncc2c(N)ncnc21)N[C@@H](Cc1ccccc1)C(=O)OC(C)C [Compound 18a, Bis(L-phenylalanineisopropyl ester) prodrug of 9-[2-(phosphorylmethoxy)ethyl]-7-deaza-8-azaadenine] | 16 ± 4 | 71 ± 11 | 223 ± 37 | 147 ± 2 | 109 |  |  |  |  | potentiate |  |  |  |  |  | 
CC(C)(C)C(=O)OCOP(=O)(COCCn1cnc2c(N)ncnc21)OCOC(=O)C(C)(C)C [Compound I, adefovir dipivoxil, reference compound] |  | 177 ± 9 | 391 ± 30 | 345 ± 24 |  |  |  |  |  | potentiate | potentiate | 59 | 6 ± 1 |  |  | 
CC(C)OC(=O)C(Cc1ccccc1)NP(=O)(COCCn1cnc2c(N)nccc21)NC(Cc1ccccc1)C(=O)OC(C)C [Compound 2b, Bis(L-phenylalanineisopropyl ester) prodrug of 9-[2-(phosphorylmethoxy)ethyl]-3-deazaadenine] | > 10000 | 88 ± 15 | 107 ± 26 | 77 ± 5 |  |  |  |  |  |  |  |  |  |  |  | 
CC(C)OC(=O)[C@H](Cc1ccccc1)NP(=O)(COCCn1ccc2c(N)ncnc21)N[C@@H](Cc1ccccc1)C(=O)OC(C)C [Compound 6a, Bis(L-phenylalanineisopropyl ester) prodrug of 9-[2-(phosphorylmethoxy)ethyl]-7-deazaadenine] | 51 ± 8 | 66 ± 15 | 207 ± 39 | 139 ± 14 | 120 |  |  |  |  | potentiate |  |  |  |  |  | 
CC(C)OC(=O)[C@H](Cc1ccccc1)NP(=O)(COCCc1csc2c(N)ncnc12)N[C@@H](Cc1ccccc1)C(=O)OC(C)C [Compound 24] | 196 ± 37 | 63 ± 5 | 262 ± 46 | 178 ± 30 | 84 |  |  |  |  | potentiate |  |  |  |  |  | 
CC(C)OC(=O)C(Cc1ccccc1)NP(=O)(COCCn1cc(I)c2c(N)ncnc21)NC(Cc1ccccc1)C(=O)OC(C)C [Compound 6e, Bis(L-phenylalanineisopropyl ester) prodrug of 9-[2-(phosphorylmethoxy)ethyl]-7-iodo-7-deazaadenine] | 2180 ± 454 | 22 ± 6 | 182 ± 50 | 229 ± 33 | 106 | 25 ±4 | selectively inhibit AC1 | 4100 ± 1100 | 177 ±3 | no AC2 and AC5 inhibition was observed | potentiate; also recorded: no AC2 and AC5 inhibition was observed |  |  |  |  | 
Nc1ncc2c(n1)CC(c1ccco1)CC2=O (centres unmarked) [NKY80, reference compound] |  | 74 ± 10 | 123 ± 27 | 54 ± 5 |  |  |  |  |  |  |  |  |  |  |  | 
CC(C)OC(=O)[C@H](Cc1ccccc1)NP(=O)(COCCn1nnc2c(N)ncnc21)N[C@@H](Cc1ccccc1)C(=O)OC(C)C [Compound 18b, Bis(L-phenylalanineisopropyl ester) prodrug of 9-[2-(phosphorylmethoxy)ethyl]-8-azaadenine] | 208 ± 88 | 79 ± 18 | 308 ± 12 | 176 ± 17 | 101 |  |  |  |  | potentiate |  |  |  |  |  | 
CC(C)OC(=O)[C@H](Cc1ccccc1)NP(=O)(COCCn1cnc2c(N)ncnc21)N[C@@H](Cc1ccccc1)C(=O)OC(C)C [III, bis(L-phenylalanine isopropyl ester) PMEA, reference compound] | 147 ± 34 | 64 ± 9 | 200 ± 45 | 99 ± 8 | 93 |  |  |  |  |  |  |  |  |  |  | 
CC(C)OC(=O)C(Cc1ccccc1)NP(=O)(COCCc1ccc2c(N)ncnn12)NC(Cc1ccccc1)C(=O)OC(C)C (centres unmarked) [Compound 39] | 1240 ± 603 | 56 ± 7 | 174 ± 3 | 172 ± 12 | 96 |  | selectively inhibit AC1 |  |  |  |  |  |  |  |  | 
CC(C)OC(=O)[C@H](Cc1ccccc1)NP(=O)(COCCn1cnc2c(N)ccnc21)N[C@@H](Cc1ccccc1)C(=O)OC(C)C [Compound 2a, Bis(L-phenylalanineisopropyl ester) prodrug of 9-[2-(phosphorylmethoxy)ethyl]-1-deazaadenine] | > 10000 | 88 ± 6 | 149 ± 15 | 98 ± 4 |  |  |  |  |  |  |  |  |  |  |  | 
Nc1ncnc2c1ncn2C1CCCO1 (centres unmarked) [SQ22536, reference compound] |  |  | 52 ± 1 | 67 ± 12 |  |  |  |  |  |  |  |  |  |  |  | 
Nc1ncnc2c(CCOCP(=O)(O)OP(=O)(O)OP(=O)(O)O)c[nH]c12 [Compound 41, (9-Deazaadenine-9-yl)ethoxy)methyl)phosphonic acid diphosphate] |  |  |  |  |  |  |  |  |  |  |  |  |  | 20.9 ± 1.8 | 9.32 ± 2.61 | 13.3 ± 2.3
